Results on 29 molecules are retold here after ChEMBL document CHEMBL5442663, “ASAP - Solubility” (2024).

The series is described as follows: Kinetic solubility of compound by measuring concentration at pH 7.4 in saturated PBS buffer by UV LCMS/MS using calibration curves. The assay has been performed by Enamine biological services, Bienta Ltd.The protocol is publicly available: dx.doi.org/10.17504/protocols.io.j8nlk8y41l5r/v1. Conditions: for solubility kinetic: PBS buffer; for Solubility (mean): buffer. The series is classed as physicochemical.

In brackets after ≈: the same amount, converted by molar mass.

What is called kinetic solubility is solubility judged after dilution from a stock solution rather than from solid.

Take `CC(C)[C@H](Nc1ncnc2[nH]c(-c3cnn(CC(N)=O)c3)cc12)c1ccc2c(n1)OCCO2`: the solubility (kinetic) worked out at 377 µM (≈ 169 µg/mL). For the molecule `CCNC(=O)c1cc2c(N[C@@H](c3ccc4c(c3)S(=O)(=O)NCC4)C(C)C)ncnc2[nH]1`, the solubility (kinetic) stood at 344 µM (≈ 152 µg/mL). Turning to `CC(C)[C@@H](Nc1ncnc2[nH]c(-c3cncc(S(C)(=O)=O)c3)cc12)c1ccc2c(c1)S(=O)(=O)CCC2`, the solubility (kinetic) was 31 µM (≈ 16.3 µg/mL). Consider `CNC(=O)Cn1cc(-c2cc3c(N[C@@H](c4ccc5c(c4)S(=O)(=O)CCC5)C(C)C)ncnc3[nH]2)cn1`, for which the kinetic solubility was determined as 306 µM (≈ 155 µg/mL) and the “Solubility (mean)” value was 294 µM (≈ 149 µg/mL). As for `CC(C)[C@@H](Nc1ncnc2[nH]c(C(=O)N[C@H]3CCN(C)C3)cc12)c1ccc2c(c1)S(=O)(=O)CCC2`, the solubility (kinetic) was determined as 392 µM (≈ 195 µg/mL). For `CC(C)(C)[C@@H](Nc1ncnc2[nH]c(-c3cnn(CC(N)=O)c3)cc12)c1ccc2c(c1)OCCO2`, the kinetic solubility is 195 µM (≈ 90 µg/mL) and the “Solubility (mean)” value is 104 µM (≈ 48 µg/mL). `CNC(=O)Cn1cc(-c2cc3c(N[C@@H](c4ccc5c(c4)OCCO5)C(C)C)ncnc3[nH]2)cn1` had a kinetic solubility of 289 µM (≈ 133 µg/mL).

In the case of `COc1ccc([C@@H](NC(=O)c2[nH]cnc3nccc2-3)C(C)c2nnn[nH]2)cc1` (stereo partly specified), the kinetic solubility is at least 400 µM.

`CNC(=O)c1cc2c(N[C@H](c3ccc4c(c3)S(=O)(=O)CCC4)C(C)C)ncnc2[nH]1` yielded a solubility (kinetic) of 374 µM (≈ 160 µg/mL). On to `CC(C)[C@H](Nc1ncnc2[nH]c(C(=O)N[C@@H]3CCN(C)C3)cc12)c1ccc2c(c1)S(=O)(=O)CCC2`, for which the solubility (kinetic) came to 366 µM (≈ 182 µg/mL). Take `CNCc1cc(-c2cc3c(N[C@H](c4ccc5c(c4)S(=O)(=O)CCC5)C(C)C)ncnc3[nH]2)co1`: the kinetic solubility is 358 µM (≈ 172 µg/mL). In turn, `CC(C)[C@H](Nc1ncnc2[nH]c(-c3cnn(C)c3C#N)cc12)c1ccc2c(c1)S(=O)(=O)CCC2` displayed a solubility (kinetic) of 22 µM (≈ 10.5 µg/mL). The molecule `CNC(=O)c1c[nH]c2ncnc(N[C@H](c3ccc4c(c3)S(=O)(=O)CCC4)C(C)C)c12` registered a kinetic solubility of 336 µM (≈ 144 µg/mL). Same read-out and setting: for `CC(C)[C@H](Nc1ncnc2[nH]c(-c3cnn(C)c3C#N)cc12)c1ccc2c(n1)OCCO2` the value was 53 µM (≈ 22.8 µg/mL). For the molecule `CCNC(=O)c1cc2c(N[C@H](c3ccc4c(c3)OCCO4)C(C)C)ncnc2[nH]1`, the kinetic solubility turned out to be 263 µM (≈ 104 µg/mL). On the same count and under the same terms, for `COc1ccc([C@H](Cc2nnn[nH]2)NC(=O)c2ncnc3[nH]ccc23)cc1` the value was 367 µM (≈ 134 µg/mL). In the case of `CC(C)[C@@H](Nc1ncnc2[nH]c(-c3cnn(CC(=O)N(C)C)c3)cc12)c1ccc2c(c1)OCCO2`, the solubility (kinetic) was found to be 210 µM (≈ 99.9 µg/mL) and the “Solubility (mean)” value is 205 µM (≈ 97.5 µg/mL).

With `COCCNC(=O)c1c[nH]c2ncnc(N[C@@H](c3ccc4c(c3)S(=O)(=O)CCC4)C(C)C)c12`, the solubility (kinetic) stood at 378 µM (≈ 178 µg/mL). `CC(C)[C@@H](Nc1ncnc2[nH]ccc12)c1ccc2c(c1)S(=O)(=O)CCO2` came in with a kinetic solubility of 372 µM (≈ 139 µg/mL). On to `CC(C)[C@@H](Nc1ncnc2[nH]c(-c3cnn(CC(N)=O)c3)cc12)c1ccc2c(c1)OCCO2`, for which the solubility (kinetic) was determined as 345 µM (≈ 154 µg/mL) and the “Solubility (mean)” value came to 332 µM (≈ 149 µg/mL). With `CC(C)[C@@H](Nc1ncnc2[nH]c(-c3cnn(C)c3C#N)cc12)c1ccc2c(n1)NC(=O)CO2`, the solubility (kinetic) is 29 µM (≈ 12.9 µg/mL) and the “Solubility (mean)” value turned out to be 28 µM (≈ 12.4 µg/mL).

Turning to `CC(C)[C@H](Nc1ncnc2[nH]c(-c3cnn(C)c3)cc12)c1ccc2c(c1)S(=O)(=O)CCC2`, the kinetic solubility was 111 µM (≈ 50 µg/mL). `CNC(=O)c1c[nH]c2ncnc(N[C@@H](c3ccc4c(c3)S(=O)(=O)CCC4)C(C)C)c12`: the kinetic solubility was found to be 390 µM (≈ 167 µg/mL) and the “Solubility (mean)” value came to 204 µM (≈ 87.2 µg/mL). In turn, `CNC(=O)c1cc2c(N[C@@H](c3ccc4c(c3)OCCO4)C(C)C)ncnc2[nH]1` came in with a solubility (kinetic) of 380 µM (≈ 145 µg/mL). As to `CC(C)[C@@H](Nc1ncnc2[nH]c(-c3cnn(C)c3C#N)cc12)c1ccc2c(c1)OCCO2`, the solubility (kinetic) was 17 µM (≈ 7.3 µg/mL) and the “Solubility (mean)” value is 20 µM (≈ 8.59 µg/mL). In the case of `CC(C)[C@@H](Nc1ncnc2[nH]c(C(=O)N[C@@H]3CCN(C)C3)cc12)c1ccc2c(c1)S(=O)(=O)CCC2`, the kinetic solubility turned out to be 392 µM (≈ 195 µg/mL). The molecule `CC(C)[C@H](Nc1ncnc2[nH]ccc12)c1ccc2c(c1)NC(=O)CO2` registered a kinetic solubility of 371 µM (≈ 125 µg/mL).

Turning to `CC(C)[C@H](Nc1ncnc2[nH]c(-c3cnn(CC(=O)N(C)C)c3)cc12)c1ccc2c(c1)OCCO2`, the kinetic solubility was determined as 19 µM (≈ 9.04 µg/mL).

`CC(C)[C@H](Nc1ncnc2[nH]c(-c3cnn(C)c3C#N)cc12)c1ccc2c(c1)NC(=O)CO2` showed a kinetic solubility of 26 µM (≈ 11.5 µg/mL).
